Patent US20240270810A1, “PREPARATION AND APPLICATION OF POLYPEPTIDE” (GUANGDONG RAYNOVENT BIOTECH CO., LTD., priority 2021, published 2024)

T1: GIPR (Homo sapiens, UniProt P48546)
T1 construct: host or cells: CHO
T1 sequence (P48546 22-466): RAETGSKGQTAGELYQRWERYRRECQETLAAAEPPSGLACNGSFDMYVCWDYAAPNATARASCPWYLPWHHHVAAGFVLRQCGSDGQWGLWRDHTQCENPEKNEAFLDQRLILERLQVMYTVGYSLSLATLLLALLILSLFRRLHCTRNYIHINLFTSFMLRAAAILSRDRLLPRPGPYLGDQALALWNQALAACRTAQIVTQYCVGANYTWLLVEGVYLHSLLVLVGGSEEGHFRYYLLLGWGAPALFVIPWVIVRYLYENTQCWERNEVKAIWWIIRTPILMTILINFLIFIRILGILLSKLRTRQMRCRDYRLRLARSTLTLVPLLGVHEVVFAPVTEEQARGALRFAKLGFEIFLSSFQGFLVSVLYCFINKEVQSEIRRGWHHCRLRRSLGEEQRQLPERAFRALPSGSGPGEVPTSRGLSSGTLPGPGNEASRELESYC

T2: GIPR (UniProt P48546 22-466, limits assumed)
T2 sequence (looked up): T1 sequence (P48546 22-466)

B1: polypeptide compound WX-001 (peptide)
peptide: YXEGTFTSDYSIXLDKIAQKAFIKWLIAGGPSSGAPPPS
modifications: Aib at positions 2 and 13; C-terminal amide (-NH2); side-chain amino groups of Lys 20 and Lys 24 bridged by iminodiacetic acid (from Fmoc-Ida-OH) whose nitrogen carries Intermediate A-1 (fatty acid side chain, structure only in a drawing)

Key:
GLP-1R [1] = target: T3, GLP-1R (Homo sapiens, UniProt P43220); assay: In vitro GLP-1R agonistic activity test (cAMP kit); format: cell-based; conditions: HEK293 host cells, without 1% HSA
T3 construct: host or cells: HEK293
Description: (§1) The cell lines were constructed by Wuxi […] (Shanghai) Co., Ltd. See details in Table 1 below. [table] [table] The test compounds were diluted at a 4-fold dilution factor in 10 points, starting from an initial concentration of 30 μM. The dilution was carried out by Bravo. • 1) 100 nL of compounds were transferred to an OptiPlate-384 plate by Echo. • 2) The OptiPlate-384 plate was centrifuged at 1000 rpm for 5 s. • 1) A GLP-1R/GIPR cell cryovial was placed in warm water at 37° C. for rapid thawing. • 2) The cell suspension was transferred into a 15 mL Transfer centrifugal tube and rinsed with 10 mL of HBSS gently. • 3) The centrifugal tube was centrifuged at 1000 rpm at room temperature for 1 min. • 4) The supernatant was discarded. • 5) The bottom cells were gently dispersed, then gently rinsed with 10 mL of HBSS, the centrifugal tube was centrifuged to settle the cells, and finally the cells were resuspended in an experimental buffer. • 6) Cell density and viability were measured by Vi-cell. • 7) The GLP-1R/GIPR cells were diluted with the experimental buffer to a concentration of 2.0*10^5/mL. • 8) […] of the diluted cell suspension was transferred into the OptiPlate-384 plate. • 9) Incubation was performed at room temperature for 30 min. • 1) 10 μL of 800 nM gradient diluted cAMP standard was added into the empty wells of the OptiPlate-384 plate. • 2) 10 μL of cAMP assay reagent was added. • 3) The OptiPlate-384 plate was covered with TopSeal-A film and incubated at room temperature for 60 min. The TopSeal-A film was removed, and readout was performed on En Vision.

GIPR [2] = target: T1, GIPR; assay: In vitro GIPR agonistic activity test (cAMP kit); format: cell-based; conditions: CHO host cells, without 1% HSA
Description: as §1, with “[table] [table]” left out

GLP-1R [3] = target: GLP-1R (UniProt P43220 24-463, limits assumed); assay: cell-based or functional assay
GIPR [4] = target: T2, GIPR; assay: cell-based or functional assay

T3 sequence (P43220 24-463, species assumed): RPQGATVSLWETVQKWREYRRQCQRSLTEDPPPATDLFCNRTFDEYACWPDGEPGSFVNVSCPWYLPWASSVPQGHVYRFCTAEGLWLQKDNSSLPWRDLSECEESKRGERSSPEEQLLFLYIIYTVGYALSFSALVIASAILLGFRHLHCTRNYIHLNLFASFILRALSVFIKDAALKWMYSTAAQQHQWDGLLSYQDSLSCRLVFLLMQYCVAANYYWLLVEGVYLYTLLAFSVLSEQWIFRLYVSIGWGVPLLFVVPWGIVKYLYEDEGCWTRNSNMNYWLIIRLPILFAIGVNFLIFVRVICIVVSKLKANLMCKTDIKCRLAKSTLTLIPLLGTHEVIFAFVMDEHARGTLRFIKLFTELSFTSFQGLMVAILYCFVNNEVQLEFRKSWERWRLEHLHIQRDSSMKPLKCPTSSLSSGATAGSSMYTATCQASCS

Molecule | EC50 (GLP-1R [1]) | EC50 (GIPR [2]) | EC50 (nM), cAMP assay on GLP-1R HEK293 cells, (+) 1% HSA (GLP-1R [3]) | EC50 (nM), cAMP assay on GLP-1R HEK293 cells, (-) 1% HSA (GLP-1R [3]) | Ratio of EC50 (+) 1% HSA to (-) 1% HSA, cAMP assay (GLP-1R [3]) | EC50 (nM), cAMP assay on GIPR CHO cells, (+) 1% HSA (GIPR [4]) | EC50 (nM), cAMP assay on GIPR CHO cells, (-) 1% HSA (GIPR [4]) | Ratio of EC50 (+) 1% HSA to (-) 1% HSA, cAMP assay (GIPR [4])
CC[C@H](C)[C@H](NC(=O)[C@H](CC(C)C)NC(=O)[C@H](Cc1c[nH]c2ccccc12)NC(=O)[C@@H](NC(=O)[C@@H](NC(=O)[C@H](Cc1ccccc1)NC(=O)[C@H](C)NC(=O)[C@@H]1CCCCNC(=O)CN(C(=O)COCCOCCNC(=O)COCCOCCNC(=O)CC[C@H](NC(=O)CCCCCCCCCCCCCCCCCCC(=O)O)C(=O)O)CC(=O)NCCCC[C@H](NC(=O)[C@H](CCCCN)NC(=O)[C@H](CC(=O)O)NC(=O)[C@H](CC(C)C)NC(=O)C(C)(C)NC(=O)[C@@H](NC(=O)[C@H](CO)NC(=O)[C@H](Cc2ccc(O)cc2)NC(=O)[C@H](CC(=O)O)NC(=O)[C@H](CO)NC(=O)[C@@H](NC(=O)[C@H](Cc2ccccc2)NC(=O)[C@@H](NC(=O)CNC(=O)[C@H](CCC(=O)O)NC(=O)C(C)(C)NC(=O)[C@@H](N)Cc2ccc(O)cc2)[C@@H](C)O)[C@@H](C)O)[C@@H](C)CC)C(=O)N[C@@H](C)C(=O)N[C@@H](CCC(N)=O)C(=O)N1)C(C)C)[C@@H](C)CC)C(=O)N[C@@H](C)C(=O)NCC(=O)NCC(=O)N1CCC[C@H]1C(=O)N[C@@H](CO)C(=O)N[C@@H](CO)C(=O)NCC(=O)N[C@@H](C)C(=O)N1CCC[C@H]1C(=O)N1CCC[C@H]1C(=O)N1CCC[C@H]1C(=O)N[C@@H](CO)C(N)=O [WX-008] | 0.18 nM | 2.74 nM |  |  |  |  |  | 
CC[C@H](C)[C@H](NC(=O)[C@H](CC(C)C)NC(=O)[C@H](Cc1c[nH]c2ccccc12)NC(=O)[C@H](CCC(=O)O)NC(=O)[C@@H](NC(=O)[C@H](Cc1ccccc1)NC(=O)[C@H](C)NC(=O)[C@@H]1CCCCNC(=O)CN(C(=O)COCCOCCNC(=O)COCCOCCNC(=O)CC[C@H](NC(=O)CC[C@H](NC(=O)CCCCCCCCCCCCCCCCC(=O)O)C(=O)O)C(=O)O)CC(=O)NCCCC[C@H](NC(=O)[C@H](CCCCN)NC(=O)[C@H](CC(=O)O)NC(=O)[C@H](CC(C)C)NC(=O)C(C)(C)NC(=O)[C@@H](NC(=O)[C@H](CO)NC(=O)[C@H](Cc2ccc(O)cc2)NC(=O)[C@H](CC(=O)O)NC(=O)[C@H](CO)NC(=O)[C@@H](NC(=O)[C@H](Cc2ccccc2)NC(=O)[C@@H](NC(=O)CNC(=O)[C@H](CCC(=O)O)NC(=O)C(C)(C)NC(=O)[C@@H](N)Cc2ccc(O)cc2)[C@@H](C)O)[C@@H](C)O)[C@@H](C)CC)C(=O)N[C@@H](C)C(=O)N[C@@H](CCC(N)=O)C(=O)N1)C(C)C)C(=O)N[C@@H](C)C(=O)NCC(=O)NCC(=O)N1CCC[C@H]1C(=O)N[C@@H](CO)C(=O)N[C@@H](CO)C(=O)NCC(=O)N[C@@H](C)C(=O)N1CCC[C@H]1C(=O)N1CCC[C@H]1C(=O)N1CCC[C@H]1C(=O)N[C@@H](CO)C(N)=O [WX-014] | 0.071 nM | 0.24 nM |  |  |  |  |  | 
CC[C@H](C)[C@H](NC(=O)[C@H](CC(C)C)NC(=O)[C@H](Cc1c[nH]c2ccccc12)NC(=O)[C@H](CCC(=O)O)NC(=O)[C@@H](NC(=O)[C@H](Cc1ccccc1)NC(=O)[C@H](C)NC(=O)[C@@H]1CCCCNC(=O)CN(C(=O)COCCOCCNC(=O)COCCOCCNC(=O)CC[C@H](NC(=O)CC[C@H](NC(=O)CCCCCCCCCCCCCCCCCCC(=O)O)C(=O)O)C(=O)O)CC(=O)NCCCC[C@H](NC(=O)[C@H](CCCCN)NC(=O)[C@H](CC(=O)O)NC(=O)[C@H](CC(C)C)NC(=O)C(C)(C)NC(=O)[C@@H](NC(=O)[C@H](CO)NC(=O)[C@H](Cc2ccc(O)cc2)NC(=O)[C@H](CC(=O)O)NC(=O)[C@H](CO)NC(=O)[C@@H](NC(=O)[C@H](Cc2ccccc2)NC(=O)[C@@H](NC(=O)CNC(=O)[C@H](CCC(=O)O)NC(=O)C(C)(C)NC(=O)[C@@H](N)Cc2ccc(O)cc2)[C@@H](C)O)[C@@H](C)O)[C@@H](C)CC)C(=O)N[C@@H](C)C(=O)N[C@@H](CCC(N)=O)C(=O)N1)C(C)C)C(=O)N[C@@H](C)C(=O)NCC(=O)NCC(=O)N1CCC[C@H]1C(=O)N[C@@H](CO)C(=O)N[C@@H](CO)C(=O)NCC(=O)N[C@@H](C)C(=O)N1CCC[C@H]1C(=O)N1CCC[C@H]1C(=O)N1CCC[C@H]1C(=O)N[C@@H](CO)C(N)=O [WX-013] | 0.057 nM | 0.18 nM |  |  |  |  |  | 
CC[C@H](C)[C@H](NC(=O)[C@H](CC(C)C)NC(=O)[C@H](Cc1c[nH]c2ccccc12)NC(=O)[C@H](CCC(N)=O)NC(=O)[C@@H](NC(=O)[C@H](Cc1ccccc1)NC(=O)[C@H](C)NC(=O)[C@@H]1CCCCNC(=O)CN(C(=O)COCCOCCNC(=O)COCCOCCNC(=O)CC[C@H](NC(=O)CCCCCCCCCCCCCCCCCCC(=O)O)C(=O)O)CC(=O)NCCCC[C@H](NC(=O)[C@H](CCCCN)NC(=O)[C@H](CC(=O)O)NC(=O)[C@H](CC(C)C)NC(=O)C(C)(C)NC(=O)[C@@H](NC(=O)[C@H](CO)NC(=O)[C@H](Cc2ccc(O)cc2)NC(=O)[C@H](CC(=O)O)NC(=O)[C@H](CO)NC(=O)[C@@H](NC(=O)[C@H](Cc2ccccc2)NC(=O)[C@@H](NC(=O)CNC(=O)[C@H](CCC(=O)O)NC(=O)C(C)(C)NC(=O)[C@@H](N)Cc2ccc(O)cc2)[C@@H](C)O)[C@@H](C)O)[C@@H](C)CC)C(=O)N[C@@H](C)C(=O)N[C@@H](CCC(N)=O)C(=O)N1)C(C)C)C(=O)N[C@@H](C)C(=O)NCC(=O)NCC(=O)N1CCC[C@H]1C(=O)N[C@@H](CO)C(=O)N[C@@H](CO)C(=O)NCC(=O)N[C@@H](C)C(=O)N1CCC[C@H]1C(=O)N1CCC[C@H]1C(=O)N1CCC[C@H]1C(=O)N[C@@H](CO)C(N)=O [WX-006] | 0.027 nM | 0.26 nM |  |  |  |  |  | 
B1 |  |  | 16.6 nM | 0.0596 nM | 279 | 16 nM | 0.324 nM | 49.3
